Consider four compounds from ChEMBL document CHEMBL1130875, “Conformationally constrained analogues of diacylglycerol (DAG). 14. Dissection of the roles of the sn-1 and sn-2 carbonyls in DAG mimetics by isopharmacophore replacement” (Bioorg Med Chem Lett, 1998).

For orientation: Ki means the equilibrium dissociation constant of an inhibitor or competing ligand from its target.

For this assay, the target named is Protein kinase C alpha type (Homo sapiens, UniProt P17252). Description: Displacement of [20-3H]phorbol-12,13-dibutyrate from a recombinant PK-C alpha.
As for `CCCCCCCCCCCCC/C=C1\CC(CO)(COC(C)=O)OS1(=O)=O` (centres undefined), the Ki came out at 320 nM.

As to `CCCCCCCCCCCCCC(=O)OCC1(CO)CCS(=O)(=O)O1` (centres undefined), the Ki worked out at 1040 nM.

Turning to `CCCCCCCCCCCCCCS(=O)(=O)OCC1(CO)CCC(=O)O1` (centres undefined), the Ki came to 90.7 nM.

As to `CCCCCCCCCCCCC/C=C1\CC(CO)(COS(C)(=O)=O)OC1=O` (centres undefined), the Ki was 823 nM.
